Measured values published in paper PMC6264190, “Interaction of α-Melanocortin and Its Pentapeptide Antisense LVKAT: Effects on Hepatoprotection in Male CBA Mice” (Molecules, 2011).
Entries after “also recorded” stand apart in the source; their conditions may differ. Values belong to the substance of their own block, whether it stands above or below them.

Key:
LVKAT = assay: Tryptophan fluorescence spectrofluorometric titration of sense peptides with antisense peptide LVKAT; format: binding
Experimental: Tryptophan fluorescence was used to detect binding of antisense pentapeptide LVKAT to the central binding region of α-MSH molecule. […] One was attributed to α-MSH and the other to its complex with antisense pentapeptide LVKAT. […] Consequently, the proposed model is given by Equation (1) and Equation (2), where Kd is the dissociation constant of the complex: […]
SENSE - LVKAT ⇄ SENSE + LVKAT(1)
(§1) Figure 2 A typical titration of 2.5 µM solution of α-MSH (sense) with LVKAT (antisense) at 25 °C, pH = 7.4, 10 mM phosphate buffer. The concentration of LVKAT was varied from 50 to 750 μM. Fluorescence units (f.u.) are given as a ratio of signals obtained from sample and reference PMTs. Inset: Fitting curve at 360 nm according to the Equation (1) and Equation (2).
as §1, with “Figure 3” for “Figure 2”, “of 25” for “of 2.5”, “of EHFRW” for “of α-MSH”, “to 500 µM.” for “to 750 μM.”
Fluorescence spectra were measured at 25 °C by OLIS RSM 1000F spectrofluorimeter (Olis, Bogart, GA, USA) equipped with thermostatted cell holder. […] Data obtained from the titrations were analyzed with the Specfit software package.

antibody to L-α-MSH = conditions: ref [15],[16]; cited from earlier work
[1] = test system: acetaminophen (APAP)-induced liver lesions in male CBA mice; assay: Histopathological grading of acetaminophen (APAP)-induced liver lesions; format: in vivo; conditions: mean ± SD; acetaminophen 150 mg/kg i.g.; α-MSH 2.5 mg/kg, LVKAT 0.8 mg/kg or their equimolar mixture i.p. 1 hour before; scored at 24 hours; 0 = no lesions, 5 = severe; group size 6-8; untreated controls 4.8 ± 0.46; α-MSH p < 0.05, LVKAT and mixture p > 0.05 vs controls
Experimental: (§2) Experimental animals were male CBA mice, 12-16 weeks old, weighing 20-25 g and bred at the Ruđer Bošković Institute. Experiments were performed according to the ILAR Guide for the Care and Use of Laboratory Animals, Council Directive 86/609/EEC, and Croatian Animal Protection Act (Official Gazette 135/06). The animals were kept in a room with dark-light cycle (12h/12h) and constant temperature (22 ± 1 °C). Hepatotoxicity was induced according to the slightly modified procedure of Guarner et al.. To induce hepatic drug-metabolizing enzymes mice were given 0.3 g/L phenobarbitone-sodium (Kemika, Zagreb, Croatia) for 7 days. […] (Krka, Novo Mesto, Slovenia) 150 mg/kg was given intragastrically (i.g.), via a gastric tube, in a volume of 0.5 mL. […] Control animals were treated with saline (0.9% NaCl). The size of experimental groups was 6-8. Mice that spontaneously died were excluded from histopathological or biochemical analysis. […] However, the difference was not statistically significant.
(§3) Sections of the liver were fixed in 10% phosphate buffered formalin, embedded in paraffin, sectioned at 4 µm, and stained with hematoxilin and eosin. […] Alanine aminotransferase (ALT) and aspartate aminotransferase (AST) activity was determined from plasma by standard laboratory techniques. […]

[2] = test system: acetaminophen-induced hepatotoxicity in male CBA mice; assay: Plasma alanine aminotransferase (ALT) activity 24 h after acetaminophen administration; format: in vivo; conditions: mean ± SD; 24 h after acetaminophen 150 mg/kg i.g.; α-MSH 2.5 mg/kg, LVKAT 0.8 mg/kg or their equimolar mixture i.p. 1 hour before; group size 6-8; untreated controls 10087 ± 9595; α-MSH significantly lower, LVKAT and mixture p > 0.05; normal animals 37.7 ± 7.7
Experimental: as §2, §3

[3] = test system: acetaminophen-induced hepatotoxicity in male CBA mice; assay: Plasma aspartate aminotransferase (AST) activity 24 h after acetaminophen administration; format: in vivo; conditions: mean ± SD; 24 h after acetaminophen 150 mg/kg i.g.; α-MSH 2.5 mg/kg, LVKAT 0.8 mg/kg or their equimolar mixture i.p. 1 hour before; group size 6-8; untreated controls 6091 ± 4275; α-MSH significantly lower, LVKAT and mixture p > 0.05; normal animals 109.3 ± 25.3
Experimental: as §2, §3

male CBA mice = assay: Spontaneous deaths in the acetaminophen hepatotoxicity model; format: in vivo; conditions: starting number eight per group; acetaminophen 150 mg/kg i.g.; α-MSH 2.5 mg/kg, LVKAT 0.8 mg/kg or equimolar mixture i.p.; none died in control; difference not statistically significant
Experimental: as §2

[4] = test system: acetaminophen induced hepatotoxicity; conditions: mouse model of acetaminophen induced hepatotoxicity; ref [15],[16]; cited from earlier work
Excerpt: Alpha-melanotropin (α-MSH) is an ancient, evolutionally conserved, tridecapeptide derived by the proteolytic cleavage from the pro-opiomelanocortin (POMC) hormone. It is currently the most widely studied melanocortin peptide in the context of tissue inflammation and cytoprotection. Recently, Turčić et al. […] Turčić et al. […] Sections of the liver were fixed in 10% phosphate buffered formalin, embedded in paraffin, sectioned at 4 µm, and stained with hematoxilin and eosin. Sections were examined by using light microscope, and grading of the liver lesions was done on 0-5 point scale according to Silva et al. (0 = no lesions, 1 = minimal, 2 = mild, 3 = moderate, 4 = marked and 5 = severe lesions). Alanine aminotransferase (ALT) and aspartate aminotransferase (AST) activity was determined from plasma by standard laboratory techniques. Plasma was sep ...

[5] = test system: hepatoprotective effects of α-MSH on the APAP induced hepatic lesions; assay: Modulation of α-MSH hepatoprotection by antisense peptide in vivo (overall); parameters: species or system male CBA mice
Experimental: as §2, §3

binding to LVKAT in fluorescence titration (in words) (LVKAT; same experimental conditions as for α-MSH (25 °C, pH = 7.4, 10 mM phosphate buffer)): very weak (if any) binding
Substance: Ac-SYSMEHFRWGKPV-NH2 [D-α-MSH, D-enantiomer of α-MSH]
binding to antibody to L-α-MSH (antibody to L-α-MSH): does not bind antibody to L-α-MSH

Substance: Ac-SYSMEHFRWGKPV-NH2 [α-MSH, tridecapeptide derived by the proteolytic cleavage from the pro-opiomelanocortin (POMC) hormone]
stoichiometry of complex with LVKAT (LVKAT; SVD analysis of fluorescence titration spectra, Specfit, no higher order complexes): 1 to 1 complex formation
liver lesion score (scale 0-5) [1]: 2 ± 0.75
blood (plasma) alanine aminotransferase (ALT) [2]: 585.8 ± 1424 U/L
blood (plasma) aspartate aminotransferase (AST) [3]: 539.5 ± 459.6 U/L
animals that died spontaneously (male CBA mice): none of the animals died
hepatoprotective effect (in words) [4]: strong and dose dependent hepatoprotective effects; also recorded: potent hepatoprotective effects

Substance: LVKAT [pentapeptide antisense to central region of α-MSH that serves as the pharmacophore for melanocortin receptors]
liver lesion score (scale 0-5) [1]: 5 ± 0
effect of LVKAT alone (hepatoprotection, in words) ([5]; LVKAT 0.8 mg/kg i.p. 1 hour before acetaminophen 150 mg/kg i.g., p > 0.05 vs untreated controls): not hepatoprotective per se
effect on hepatoprotection by α-MSH (in words) ([5]; LVKAT given with α-MSH (equimolar) i.p. 1 hour before acetaminophen 150 mg/kg i.g., histopathology, ALT and AST): abolishes hepatoprotective effects of α-MSH
